System: HBV in primary human hepatocytes (PHH)
Experiment: Cryopreserved primary human hepatocytes (PHH) HBV infection assay
Assay type: cell-based
Details: Hepatitis B virus, Hepatocyte, 216 h, HBV-infected cryopreserved PHH, 9 days post-compound treatment, extracellular HBsAg by CLIA; read-out: HBsAg IC50
Outline: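 Cryopreserved PHH (5.8×10^4 cells/well) were infected with 5.8×10^6 HBV genome equivalents in 4% PEG8000/1% DMSO medium. Extracellular HBsAg was measured by CLIA and HBV DNA by qPCR, with IC50 from 4-parameter logistic fits.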

## O=C(O)C1CC(OCCOc2ccc(-c3cc(=O)c4cccc(Cl)c4o3)cc2)C1 (stereo not shown) [Example 1, 3-[2-[4-(8-chloro-4-oxo-chromen-2-yl)phenoxy]ethoxy]cyclobutanecarboxylic acid]
  IC50: 130 nM
